Measurements published in PMC3076313 (Bioorganic chemistry, 2010).
Changes are numbered by the printed parent chain.

What was measured:
[1] = molecular target: T1, D1625R/D1628R double mutant of p300 HAT (Homo sapiens, UniProt Q09472, D1625R/D1628R); experiment: p300 HAT radioactive acetyltransferase inhibition assay, double mutant enzyme
T1 sequence (Q09472 1287-1663 D1625R/D1628R limits assumed): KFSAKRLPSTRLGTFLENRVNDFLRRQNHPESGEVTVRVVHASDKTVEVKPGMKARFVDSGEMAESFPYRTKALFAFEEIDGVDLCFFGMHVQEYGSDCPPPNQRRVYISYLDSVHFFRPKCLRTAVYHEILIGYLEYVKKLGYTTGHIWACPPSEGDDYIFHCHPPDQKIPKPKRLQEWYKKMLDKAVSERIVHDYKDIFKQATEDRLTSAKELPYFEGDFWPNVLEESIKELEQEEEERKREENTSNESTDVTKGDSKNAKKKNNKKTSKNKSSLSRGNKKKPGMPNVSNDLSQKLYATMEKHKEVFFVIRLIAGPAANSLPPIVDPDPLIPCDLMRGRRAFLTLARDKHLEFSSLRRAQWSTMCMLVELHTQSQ

p300 HAT = p300 HAT inhibitor; cited from earlier work
[2] = molecular target: T2, semisynthetic p300 HAT (wt p300 HAT) (Homo sapiens, UniProt Q09472); settings: 20 μM acetyl-CoA, 100 μM H4-15 peptide, 7 min pre-incubation, 30°C
T2 sequence (Q09472 1287-1663 limits assumed): T1 sequence (Q09472 1287-1663 D1625R/D1628R limits assumed) with R339D, R342D

For CC(=O)N[C@@H](CCCCNC(=O)CSCCNC(=O)CCNC(=O)[C@H](O)C(C)(C)COP(=O)(O)OP(=O)(O)OC[C@H]1O[C@@H](n2cnc3c(N)ncnc32)[C@H](O)[C@@H]1OP(=O)(O)O)C(N)=O [Lys-CoA], the IC50 ([1]; D1625R, D1628R p300 HAT, 20 μM acetyl-CoA, 100 μM H4-15 peptide) is given as 209 ± 15 nM, the “fold weakening of IC50 with D1625R/D1628R p300 HAT compared with wt p300 HAT” value ([1]; double mutant vs wt) is given as 3.5 fold and the Ki (p300 HAT) is given as 20 nM. For the same compound, the IC50 [2] was 60 nM.
